# Measurements from article PMC5431086, “The Rational Design of Therapeutic Peptides for Aminopeptidase N using a Substrate-Based Approach” (Scientific Reports, 2017).
# Positions of bridges follow the written chain, without caps; N, C: chain ends. Non-standard residues stand in square brackets, D forms with d. Residues, ends and D or L forms follow the SMILES beside them. Primed or numbered codes have the meaning given here. No end group written: not given here. FITC′ = fluorescein isothiocyanate label; Nle = CCCC[C@H](N)C(=O)O
# Key:
# [1] = Toxicity study, i.v. administration; assay type: in vivo; conditions: mice
# Protocol: (§1) The potential therapeutic efficacy of cyc-LHSPW was next tested in vitro using the PC3 and DU145 cell lines. […] Prior to in vivo therapeutic efficacy studies, a toxicity study was performed with the i.v. administration of cyc-LHSPW. […] Mice bearing established PC3 and DU145 xenografts were treated systemically via tail vein injection with 40 mg/kg of the tumor homing APN peptide cyc-NGR or the cyc-LHSPW peptide t.i.w. x4 (Fig. 6B). […] This therapeutic effect persisted to the end of the study with the cyc-LHSPW-treated mice having a tumor volume of 309.3 ± 92.7 mm^3 at day 35. […] PC3 tumors were removed and stained for the cellular proliferation marker Ki67.
# FAP = target: T1, FAP (Homo sapiens, UniProt Q12884); test: Protease selectivity panel, FAP; assay type: biochemical
# T1 sequence (Q12884 1-760): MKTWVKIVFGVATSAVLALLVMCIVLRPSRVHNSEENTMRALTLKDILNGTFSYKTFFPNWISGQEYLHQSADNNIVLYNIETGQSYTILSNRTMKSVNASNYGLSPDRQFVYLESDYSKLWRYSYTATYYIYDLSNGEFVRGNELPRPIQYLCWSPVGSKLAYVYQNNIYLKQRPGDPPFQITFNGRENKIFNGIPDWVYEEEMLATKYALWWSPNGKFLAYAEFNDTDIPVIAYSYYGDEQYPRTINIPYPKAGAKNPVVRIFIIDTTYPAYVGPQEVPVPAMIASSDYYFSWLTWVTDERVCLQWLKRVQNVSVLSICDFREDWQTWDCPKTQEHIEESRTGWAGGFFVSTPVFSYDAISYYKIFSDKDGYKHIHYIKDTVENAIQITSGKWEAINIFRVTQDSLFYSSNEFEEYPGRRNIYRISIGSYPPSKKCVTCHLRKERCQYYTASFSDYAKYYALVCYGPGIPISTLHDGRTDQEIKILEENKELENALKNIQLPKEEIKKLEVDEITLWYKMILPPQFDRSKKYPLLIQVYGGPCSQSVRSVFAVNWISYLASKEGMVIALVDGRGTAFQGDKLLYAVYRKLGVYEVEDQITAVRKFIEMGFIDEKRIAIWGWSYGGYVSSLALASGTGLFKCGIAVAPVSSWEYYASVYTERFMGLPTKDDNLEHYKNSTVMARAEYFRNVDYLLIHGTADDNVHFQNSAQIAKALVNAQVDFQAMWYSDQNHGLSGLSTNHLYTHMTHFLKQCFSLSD
# Protocol: (§2) Next, the specificity of the lead peptide inhibitor cyc-LHSPW was tested against a panel of cancer-associated proteases with wide-ranging substrate specificities (Fig. 5A). APN was the only protease inhibited by cyc-LHSPW with chymotrypsin, trypsin, PSA, KLK7, aminopeptidase A, and the exopeptidase FAP all having Ki values above 100 μM. Having assessed selectivity for purified APN, we next evaluated the ability of cyc-LHSPW to preferentially bind to cells that express surface APN using flow cytometry (Fig. 5B). […] The expression of cell surface-associated APN was examined in the androgen receptor negative neuroendocrine prostate cancer cell lines PC3 and DU145 using a commercially available antibody. […] The peptide was next tested on frozen PC3 and DU145 tumor xenografts sections.
# (§3) Figure 5 Determining the specificity of cyc-LHSPW for APN. (A) The cyc-LHSPW peptide was specific inhibitor of APN when compared to a panel of proteases. (B) Fluorescence microscopy of frozen PC3 (left) and DU145 (right) xenograft sections with cyc-LHSPW-(Gly)4-FITC. Sections were incubated with 250 nM of cyc-LHSPW-(Gly)4-FITC overnight and then visualized. The merged fluoresence channels are cyc-LHSPW-(Gly)4-FITC (green) and nuclei (DAPI, blue). (C) Analysis of APN inhibitor binding to PC3 (left) and DU145 cells (right) by flow cytometry. […]
# PSA = PSA (Homo sapiens, UniProt P07288); test: Protease selectivity panel, PSA; assay type: biochemical
# Sequence of PSA (P07288 25-261): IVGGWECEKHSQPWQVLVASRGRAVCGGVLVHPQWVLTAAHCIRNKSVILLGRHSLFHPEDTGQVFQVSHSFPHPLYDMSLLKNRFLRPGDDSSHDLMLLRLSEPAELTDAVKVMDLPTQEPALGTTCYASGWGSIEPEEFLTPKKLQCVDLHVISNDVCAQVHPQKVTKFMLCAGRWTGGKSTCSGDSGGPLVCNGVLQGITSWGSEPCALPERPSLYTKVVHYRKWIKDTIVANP
# Protocol: as §2, §3
# aminopeptidase A = aminopeptidase A (Homo sapiens, UniProt Q07075); test: Protease selectivity panel, aminopeptidase A; assay type: biochemical
# Sequence of aminopeptidase A (Q07075 whole entry, species assumed): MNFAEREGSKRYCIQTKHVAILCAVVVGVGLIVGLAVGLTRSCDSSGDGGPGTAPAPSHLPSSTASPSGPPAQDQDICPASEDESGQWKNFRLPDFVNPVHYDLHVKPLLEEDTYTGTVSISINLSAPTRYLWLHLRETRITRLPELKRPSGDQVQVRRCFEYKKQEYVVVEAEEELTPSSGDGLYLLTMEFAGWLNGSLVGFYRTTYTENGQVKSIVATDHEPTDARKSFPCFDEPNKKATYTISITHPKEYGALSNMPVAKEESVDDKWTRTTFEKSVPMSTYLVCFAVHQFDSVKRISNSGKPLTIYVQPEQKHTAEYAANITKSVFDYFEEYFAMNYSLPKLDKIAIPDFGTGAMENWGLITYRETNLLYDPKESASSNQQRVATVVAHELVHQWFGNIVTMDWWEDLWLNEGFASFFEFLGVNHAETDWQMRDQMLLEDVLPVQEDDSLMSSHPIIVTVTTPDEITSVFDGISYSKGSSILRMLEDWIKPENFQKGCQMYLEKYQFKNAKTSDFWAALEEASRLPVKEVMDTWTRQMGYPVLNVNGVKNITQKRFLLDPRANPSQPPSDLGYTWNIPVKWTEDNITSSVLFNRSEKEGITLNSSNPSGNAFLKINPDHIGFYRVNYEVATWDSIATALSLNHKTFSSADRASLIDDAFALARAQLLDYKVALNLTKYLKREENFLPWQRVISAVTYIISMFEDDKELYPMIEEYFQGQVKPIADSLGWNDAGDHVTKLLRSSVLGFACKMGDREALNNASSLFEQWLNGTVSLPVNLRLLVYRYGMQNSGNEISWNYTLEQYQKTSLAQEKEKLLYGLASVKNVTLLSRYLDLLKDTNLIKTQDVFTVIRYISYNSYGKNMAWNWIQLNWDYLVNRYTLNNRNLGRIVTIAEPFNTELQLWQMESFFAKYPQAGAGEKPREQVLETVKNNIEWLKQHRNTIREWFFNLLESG
# Protocol: as §2, §3
# KLK7 = KLK7 (Homo sapiens, UniProt P49862); test: Protease selectivity panel, KLK7; assay type: biochemical
# Sequence of KLK7 (P49862 30-253, species assumed): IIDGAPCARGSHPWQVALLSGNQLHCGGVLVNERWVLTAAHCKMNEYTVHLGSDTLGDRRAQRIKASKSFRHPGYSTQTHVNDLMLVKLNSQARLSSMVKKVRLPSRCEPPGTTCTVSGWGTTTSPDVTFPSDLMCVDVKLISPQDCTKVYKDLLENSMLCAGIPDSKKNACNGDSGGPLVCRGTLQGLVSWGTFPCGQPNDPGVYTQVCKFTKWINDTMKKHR
# Protocol: as §2, §3
# hAPN (aminopeptidase N) = target: T2, hAPN (aminopeptidase N) (Homo sapiens, UniProt P15144); test: Inhibition of cleavage of fluorogenic alanine substrate (H-Ala-AMC) by APN; assay type: biochemical; conditions: for Ki: APN, Ki from IC50 by Cheng-Prusoff equation; for Ki / IC50: 0.1 μM APN, 100 μM H-Ala-AMC; for IC50: pH 7.2, 37 °C, triplicate
# T2 construct: human APN ecdomain (residues 66–967) were expressed and purified as previously described; honeybee-melittin signal peptide (N); His6 (C); made in house; host or cells: insect cells
# T2 sequence (P15144 66-967): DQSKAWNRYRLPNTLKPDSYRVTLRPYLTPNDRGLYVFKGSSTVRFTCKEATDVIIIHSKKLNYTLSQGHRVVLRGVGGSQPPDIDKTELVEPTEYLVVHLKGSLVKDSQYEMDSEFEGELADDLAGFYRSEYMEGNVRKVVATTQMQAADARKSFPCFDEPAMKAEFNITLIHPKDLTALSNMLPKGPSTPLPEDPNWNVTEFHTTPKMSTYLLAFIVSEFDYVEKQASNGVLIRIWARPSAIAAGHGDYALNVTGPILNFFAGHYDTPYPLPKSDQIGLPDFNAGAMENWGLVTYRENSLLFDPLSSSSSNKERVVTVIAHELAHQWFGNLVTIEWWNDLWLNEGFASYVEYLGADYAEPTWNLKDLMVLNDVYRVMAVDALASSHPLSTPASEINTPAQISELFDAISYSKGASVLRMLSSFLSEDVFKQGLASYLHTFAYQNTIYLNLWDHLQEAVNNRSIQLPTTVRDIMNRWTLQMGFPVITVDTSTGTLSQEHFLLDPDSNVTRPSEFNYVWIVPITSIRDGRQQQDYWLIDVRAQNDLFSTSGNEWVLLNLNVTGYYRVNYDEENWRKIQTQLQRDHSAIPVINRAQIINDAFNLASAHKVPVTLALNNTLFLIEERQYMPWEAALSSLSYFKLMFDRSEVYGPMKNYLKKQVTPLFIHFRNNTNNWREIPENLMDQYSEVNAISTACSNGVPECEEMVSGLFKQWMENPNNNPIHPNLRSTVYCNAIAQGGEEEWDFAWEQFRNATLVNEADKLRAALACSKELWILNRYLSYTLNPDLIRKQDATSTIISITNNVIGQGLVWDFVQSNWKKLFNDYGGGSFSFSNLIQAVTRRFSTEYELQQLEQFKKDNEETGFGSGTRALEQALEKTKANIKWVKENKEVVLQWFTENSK
# Protocol: Five-residue long peptides containing P1–P4′ residues from primary cleavages in the library were synthesized and tested for their ability to prevent the cleavage of a fluorogenic alanine substrate by hAPN.
# The peptides used in this study were custom synthesized by AAPPTEC of Louisville, KY using traditional Fmoc solid-phase peptide synthesis. All of the peptides were purified and characterized by AAPPTEC. […] Inhibition assays were performed in triplicate in a 100 mM Tris pH 7.2, Brij 35 0.0002% w/v assay buffer at 37 °C with 0.1 μM APN and 100 μM H-Ala-AMC (fluorophore). Values were recorded by Infinite pro plate reader every 2 minutes for 30 minutes with laser parameters set for excitation at 355 nm and emission at 460 nm.
# PC3 cells [2] = test: Clonogenic survival assay, PC3; assay type: cell-based
# Protocol: as §1
# (§4) Figure 6 The therapeutic evaluation of cyc-LHSPW in vivo and in vitro. (A) The effect of the three peptides cyc-LHSPW, LHSPW and cyc-nHSPW on the clonogenic survival of APN-expressing PC3 cells and APN-null DU145 cells. (B) Tumor growth of PC3 and DU145 xenograft mice treated with 40 mg/kg of cyc-LHSPW, cyc-NGR or saline control three times a week for four weeks. […] Statistical significance of cyc-LHSPW compared with control is denoted by: *P < 0.05; and **P < 0.01, as determined by the Student t test. […]
# (§5) The clonogenic survival assays were conducted as previously described. […] Tumor measurements were made twice weekly with calipers and the tumor volume (in mm^3) was calculated by the formula 0.5236 × length (L) × width (W) × height (H). […]
# DU145 cells [3] = test: Clonogenic survival assay, DU145; assay type: cell-based
# Protocol: as §1, §4, §5
# PC3 cells [4] = test: Flow cytometry binding to APN-expressing PC3 cells; assay type: cell-based; conditions: 500 nmol/L, 60 minutes, 4 °C
# Protocol: as §2, §3
# [5] = system: frozen PC3 and DU145 tumor xenografts sections; test: Fluorescence microscopy of frozen tumor xenograft sections; conditions: 250 nM overnight, PC3 vs DU145 sections
# Protocol: as §2, §3
# DU145 cells [6] = test: Flow cytometry binding to APN-null DU145 cells; assay type: cell-based; conditions: 500 nmol/L, 60 minutes, 4 °C
# Protocol: as §2, §3
Compound,IC50 (hAPN (aminopeptidase N)) [µM],other results
"CC(C)C[C@@H]1NC(=O)[C@@H](N)CSSC[C@@H](C(=O)O)NC(=O)[C@H](Cc2c[nH]c3ccccc23)NC(=O)[C@@H]2CCCN2C(=O)[C@H](CO)NC(=O)[C@H](Cc2c[nH]cn2)NC1=O [cyc-LHSPW, Cys-LHSPW-Cys] (H-CLHSPWC-OH; disulfide 1-7)",–,"tolerability ([1]; 40 mg/kg three time a week for four weeks (t.i.w. x4)): well tolerated, i.e. no signs of morbidity; tolerability ([1]; multiple doses of 100 mg/kg): resulted in cachexia; tolerability ([1]; single high dose of 100 mg/kg): well tolerated; Ki (FAP): > 100 µM; Ki (PSA): > 100 µM; Ki (aminopeptidase A): > 100 µM; Ki (KLK7): > 100 µM; Ki (hAPN (aminopeptidase N)): 24.7 ± 1.4 µM"
"CCCC[C@@H]1NC(=O)[C@@H](N)CSSC[C@@H](C(=O)O)NC(=O)[C@H](Cc2c[nH]c3ccccc23)NC(=O)[C@@H]2CCCN2C(=O)[C@H](CO)NC(=O)[C@H](Cc2c[nH]cn2)NC1=O [cyc-nHSPW, Cys-nHSPW-Cys] (H-C[Nle]HSPWC-OH; disulfide 1-7; N-terminus and C-terminus assumed)",–,clonogenic survival (PC3 cells [2]): No significant biological effect; clonogenic survival (DU145 cells [3]): No significant biological effect; inhibition of APN (in words) (hAPN (aminopeptidase N)): eliminated any measureable inhibition of APN
ADARK [ADARK],> 500,–
AHLFN [AHLFN],> 500,–
Ac-LHSPW [Ac-LHSPW],–,Ki (hAPN (aminopeptidase N)): > 500 µM
EHSPW [EHSPW],115 ± 17.2,–
FSLSK [FSLSK],> 500,–
INDFL [INDFL],> 500,–
LDSTF [LDSTF],> 500,–
LHSPW [LHSPW],10.6 ± 1.2,–
RDLVD [RDLVD],> 500,–
SKSGQ [SKSGQ],> 500,–
cyc-LHSPW-(Gly)4-FITC: fluorophore-containing version of cyc-LHSPW with a (Gly)4-FITC group coupled to the C-terminal cysteine (CLHSPWCGGGG-{FITC′}; disulfide 1-7),–,binding to cells by flow cytometry (PC3 cells [4]): selectively labeled the APN-expressing PC3 cells over the APN-null DU145 cells; binding to cells by flow cytometry (PC3 cells [4]; listed as FITC labeled cyc-LHSPW): preferentially bound to PC3 cells; labeling of xenograft sections by fluorescence microscopy [5]: Preferential labeling of the PC3 xenograft section was evident; binding to cells by flow cytometry (DU145 cells [6]): no noticeable labelling of DU145 cells

# Now from value to compound, other results behind:
IC50 (hAPN (aminopeptidase N)) [µM],Compound,other results
6.5 ± 0.5,CCCC[C@H](N)C(=O)N[C@@H](Cc1c[nH]cn1)C(=O)N[C@@H](CO)C(=O)N1CCC[C@H]1C(=O)N[C@@H](Cc1c[nH]c2ccccc12)C(=O)O [nHSPW] (H-[Nle]HSPW-OH),–
9.4 ± 1.1,AHSPW [AHSPW],–
> 500,AHSTF [AHSTF],–
> 500,EPKVA [EPKVA],–
> 500,FDWWG [FDWWG],–
> 500,FYLRE [FYLRE],–
82.5 ± 9.3,PHSPW [PHSPW],–
